Data taken from ChEMBL document CHEMBL1201862, “PubChem BioAssay data set” (2004).
Several values for one entry are separate records, joined by “and”; a condition that tells them apart may be missing. Equal values may be shown once.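 Where inhibition never reached the appropriate level, the endpoint shown equals the highest concentration tested. Otherwise, values were interpolated linearly from a five-concentration, 48-hour dose response in 96-well plates. The concentration for 50% growth inhibition is given as GI50.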 Activity calls are given as the source filed them. No stated cut-off is given here; in the data, active = GI50 up to about 1.1 µM and inactive = higher.

Columns and labels:
Assay in all cases: NCI-60 cell line screen, 48 h
786-0 = tested on: 786-0
A498 = tested on: A498
A549 = tested on: A549
ACHN = tested on: ACHN
BT-549 = tested on: BT-549
CAKI-1 = tested on: CAKI-1
CCRF-CEM = tested on: CCRF-CEM
COLO 205 = tested on: COLO 205
DU-145 = tested on: DU-145
EKVX = tested on: EKVX
HCC 2998 = tested on: HCC 2998
HCT-116 = tested on: HCT-116
HCT-15 = tested on: HCT-15
HL-60 = tested on: HL-60
HOP-62 = tested on: HOP-62
HOP-92 = tested on: HOP-92
HT-29 = tested on: HT-29
Hs-578T = tested on: Hs-578T
IGROV-1 = tested on: IGROV-1
KM12 = tested on: KM12
LOX IMVI = tested on: LOX IMVI
M14 = tested on: M14
MCF7 = tested on: MCF7
MDA-MB-231 = tested on: MDA-MB-231
MDA-MB-435 = tested on: MDA-MB-435
MDA-N = tested on: MDA-N
MOLT-4 = tested on: MOLT-4
Malme-3M = tested on: Malme-3M
NCI-H460 = tested on: NCI-H460
NCI-H522 = tested on: NCI-H522
NCI/ADR-RES = tested on: NCI/ADR-RES
OVCAR-3 = tested on: OVCAR-3
OVCAR-4 = tested on: OVCAR-4
OVCAR-5 = tested on: OVCAR-5
OVCAR-8 = tested on: OVCAR-8
PC-3 = tested on: PC-3
RPMI-8226 = tested on: RPMI-8226
RXF 393 = tested on: RXF 393
SF-268 = tested on: SF-268
SF-295 = tested on: SF-295
SF-539 = tested on: SF-539
SK-MEL-28 = tested on: SK-MEL-28
SK-MEL-2 = tested on: SK-MEL-2
SK-MEL-5 = tested on: SK-MEL-5
SK-OV-3 = tested on: SK-OV-3
SN12C = tested on: SN12C
SNB-19 = tested on: SNB-19
SNB-75 = tested on: SNB-75
SR = tested on: SR
SW-620 = tested on: SW-620
T47D = tested on: T47D
TK-10 = tested on: TK-10
U-251 = tested on: U-251
UACC-257 = tested on: UACC-257
UACC-62 = tested on: UACC-62
UO-31 = tested on: UO-31
K562 = tested on: K562
NCI-H226 = tested on: NCI-H226
NCI-H23 = tested on: NCI-H23

Measured: GI50

CC(=O)OC1COC(n2c(N)c(C#N)c(-c3ccccc3)c(C#N)c2=S)C(OC(C)=O)C1OC(C)=O (centres undefined)
52.6 µM and 72.6 µM: HCT-15
inactive: 786-0 36.9 µM and 39.3 µM | A498 24.8 µM and 33.2 µM | A549 71 µM and 85.9 µM | ACHN 45.7 µM and 71.4 µM | BT-549 25.6 µM and 22.8 µM | CAKI-1 39.4 µM and 40.7 µM | CCRF-CEM 26.1 µM and 35.2 µM | COLO 205 31.6 µM and 31.3 µM | DU-145 47.9 µM and 38.4 µM | EKVX 31.9 µM and 29.9 µM | HCC 2998 25.6 µM and 27.4 µM | HCT-116 45.5 µM and 37.8 µM | HL-60 23.2 µM | HOP-62 > 100 µM | HOP-92 19.8 µM and 14.8 µM | HT-29 35.9 µM and 43.1 µM | Hs-578T 45.3 µM and 37.4 µM | IGROV-1 > 100 µM and 68.5 µM | KM12 67 µM and 40.7 µM | LOX IMVI 25.2 µM and 27.6 µM | M14 70.8 µM and 64.1 µM | MCF7 34.4 µM and 29.9 µM | MDA-MB-231 50.9 µM and 56.6 µM | MDA-MB-435 27.8 µM and 24.3 µM | MDA-N 26.6 µM and 27.8 µM | MOLT-4 24.6 µM and 24.3 µM | Malme-3M 34.3 µM and 33.4 µM | NCI-H460 46.8 µM and 65.9 µM | NCI-H522 38.5 µM and 40.8 µM | NCI/ADR-RES > 100 µM and 71.6 µM | OVCAR-3 28.9 µM and 33.2 µM | OVCAR-4 41 µM and 38.7 µM | OVCAR-5 46.5 µM and 89.1 µM | OVCAR-8 31.6 µM and 56.8 µM | PC-3 43.9 µM and 40.1 µM | RPMI-8226 24.5 µM and 28.6 µM | RXF 393 34.4 µM and 33 µM | SF-268 36 µM | SF-295 > 100 µM | SF-539 40.2 µM and 32.4 µM | SK-MEL-28 55.7 µM and 36.6 µM | SK-MEL-2 20 µM and 27.2 µM | SK-MEL-5 37.9 µM and 30.3 µM | SK-OV-3 38.3 µM and 45 µM | SN12C 48.1 µM and 36.7 µM | SNB-19 75.9 µM | SNB-75 43.4 µM and 24.4 µM | SR 19.6 µM and 22.2 µM | SW-620 56.2 µM and 64.3 µM | T47D 33 µM and 28.8 µM | TK-10 30.2 µM | U-251 48.8 µM and 53.1 µM | UACC-257 57.7 µM and 80.9 µM | UACC-62 33 µM and 35.1 µM | UO-31 23.1 µM and 36.5 µM

NCCCCNCCCNC(=O)CNC(=O)CC(O)C(N)CCCC(NC(=O)C(CN)NC(=O)C(O)CNC(=O)CC(N)c1ccc(O)cc1)C(=O)O (centres undefined)
inactive: 786-0 > 10 µM | A498 > 10 µM | A549 > 10 µM | ACHN > 10 µM | BT-549 > 10 µM | CAKI-1 > 10 µM | CCRF-CEM > 10 µM | COLO 205 > 10 µM | DU-145 > 10 µM | EKVX > 10 µM | HCC 2998 > 10 µM | HCT-116 > 10 µM | HL-60 > 10 µM | HOP-62 > 10 µM | HOP-92 > 10 µM | HT-29 > 10 µM | Hs-578T > 10 µM | IGROV-1 > 10 µM | K562 > 10 µM | KM12 > 10 µM | LOX IMVI > 10 µM | M14 > 10 µM | MCF7 > 10 µM | MDA-MB-231 > 10 µM | MDA-MB-435 > 10 µM | MDA-N > 10 µM | MOLT-4 > 10 µM | Malme-3M > 10 µM | NCI-H226 > 10 µM | NCI-H23 > 10 µM | NCI-H460 > 10 µM | NCI-H522 > 10 µM | NCI/ADR-RES > 10 µM | OVCAR-3 > 10 µM | OVCAR-4 > 10 µM | OVCAR-5 > 10 µM | OVCAR-8 > 10 µM | PC-3 > 10 µM | RPMI-8226 > 10 µM | RXF 393 > 10 µM | SF-268 > 10 µM | SF-295 > 10 µM | SF-539 > 10 µM | SK-MEL-28 > 10 µM | SK-MEL-2 > 10 µM | SK-MEL-5 > 10 µM | SK-OV-3 > 10 µM | SN12C > 10 µM | SNB-19 > 10 µM | SNB-75 > 10 µM | SR > 10 µM | T47D > 10 µM | TK-10 > 10 µM | U-251 > 10 µM | UACC-257 > 10 µM | UACC-62 > 10 µM | UO-31 > 10 µM
> 10 µM: HCT-15
